Assay results as given in PubChem BioAssay (NCI).
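Interpolation was linear, between the two tested concentrations surrounding the appropriate level; five concentrations were tested over 48 hours in 96-well plates. TGI marks complete inhibition of growth.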

Columns and labels:
Test in all cases: NCI tumour cell line growth inhibition, 48 h
[1] = test system: U251 CNS
[2] = test system: SR leukemia
[3] = test system: MOLT-4 leukemia
[4] = test system: HCC-2998 colon
[5] = test system: HCT-116 colon
[6] = test system: ACHN renal
[7] = test system: A498 renal
[8] = test system: HOP-62 NSCLC
[9] = test system: SN12C renal
[10] = test system: BT-549 breast

Row | Compound | TGI [1] | TGI [2] | TGI [3] | TGI [4] | TGI [5] | TGI [6] | TGI [7] | TGI [8] | TGI [9] | TGI [10]
1 | COC(=O)c1c(C(=O)OC)c2c3ccccc3n(C)c2c2c1c1ccccc1n2C | > 100 µM | > 100 µM | > 100 µM | > 100 µM | > 100 µM | > 100 µM | > 100 µM | 75 µM | > 100 µM | > 100 µM
2 | COc1ncnc2c1cnn2Cc1cn(CCCCO)nn1 | > 100 µM | > 100 µM | > 100 µM | > 100 µM | > 100 µM | > 100 µM | > 100 µM | > 100 µM | > 100 µM | > 100 µM
3 | CC(=O)Oc1c(C)c2c(c3ccccc13)OC(C)(C)C2 | 33.4 µM | 52.8 µM | 37.1 µM | 32.7 µM | 42.9 µM | 31 µM | 38.2 µM | 34.5 µM | 34.5 µM | 39.4 µM
4 | COc1ccc2c(CCNS(=O)(=O)c3ccccc3)c(C(C)=O)[nH]c2c1 | > 100 µM | > 100 µM | > 100 µM | > 100 µM | > 100 µM | > 100 µM | > 100 µM | > 100 µM | > 100 µM | > 100 µM
5 | BrCC(Br)(c1ccccc1)c1ccccc1-c1cc(-c2ccccc2)cc(-c2ccccc2)n1 (stereo not given) | 5.85 µM | > 52.7 µM | 17.3 µM | 9.8 µM | 12.3 µM | 23.9 µM | 15.6 µM | 23.2 µM | 28 µM | 10.1 µM
6 | O=C(NNC(=S)NCc1ccccc1)C12CC3CC(CC(C3)C1)C2 | > 100 µM | > 100 µM | > 100 µM | > 100 µM | > 100 µM | > 100 µM | > 100 µM | > 100 µM | > 100 µM | > 100 µM
7 | CC[C@@H](/C=C\CCC1(C[C@@H](N)CCC=C(C)C)OCCO1)O[Si](C(C)C)(C(C)C)C(C)C | 35.1 µM | 14.5 µM | 37.1 µM | 26 µM | 31.4 µM | 32 µM | 32.4 µM | 48.2 µM | 31.6 µM | 35 µM
8 | CC(=O)Nc1ccc2cc3[nH]c4cc(NC(C)=O)ccc4c3nc2c1 | > 100 µM | > 100 µM | 77.3 µM | > 100 µM | > 100 µM | > 100 µM | > 100 µM | > 100 µM | > 100 µM | > 100 µM
9 | N#CCCN(CCC#N)c1ccc(C(N=Nc2ccc(Cl)cc2)=Nc2ccc(F)cc2)cc1 | > 100 µM | > 100 µM | > 100 µM | > 100 µM | > 100 µM | > 100 µM | > 100 µM | > 100 µM | > 100 µM | > 100 µM
10 | Cc1ccc(C)n1-n1c(-c2ccccc2)n[nH]c1=O | > 100 µM | > 100 µM | > 100 µM | > 100 µM | > 100 µM | > 100 µM | > 100 µM | > 100 µM | > 100 µM | > 100 µM
11 | C=C1CC(COc2ccc3c(C)cc(=O)oc3c2)(c2ccccc2)OC1=O (stereo not given) | 23.6 µM | > 31.6 µM | 6.77 µM | 10.1 µM | 2.73 µM | 7.3 µM | 14.1 µM | 31 µM | 21.1 µM | 3.18 µM
12 | CC(=O)O[C@@H]1O[Si](C(C)(C)C)(C(C)(C)C)[C@H](C)[C@H]1C | > 100 µM | > 100 µM | 65.7 µM | > 100 µM | > 100 µM | > 100 µM | > 100 µM | > 100 µM | > 100 µM | > 100 µM
13 | COC(=O)[C@@H]1Cc2cc(O)c(O)cc2C2(CCN(C)CC2)O1 | > 10 µM | > 10 µM | > 10 µM | > 10 µM | > 10 µM | > 10 µM | > 10 µM | > 10 µM | > 10 µM | > 10 µM
14 | COC1(CC[C@H](C)COC2OC(CO)C(O)C(O)C2O)O[C@H]2C[C@H]3[C@@H]4CC=C5C[C@@H](OC6OC(CO)C(O)C(OC7OC(CO)C(O)C(O)C7O)C6OC6OC(C)C(O)C(O)C6O)CC[C@]5(C)[C@H]4CC[C@]3(C)[C@H]2[C@@H]1C (stereo not given in full) | 4.02 µM | > 100 µM | > 27.3 µM | 11.6 µM | > 32.4 µM | 36.3 µM | 34.5 µM | 12.4 µM | > 31.1 µM | 22.5 µM
15 | COc1ccc(N2C(=O)/C(=C\c3cccc(Oc4ccccc4)c3)SC2c2ccccc2)cc1 (stereo not given) | > 100 µM | 59.2 µM | 74.1 µM | > 100 µM | > 100 µM | > 100 µM | > 100 µM | > 100 µM | > 100 µM | > 100 µM
16 | O=C1CN(c2ccc(Cl)cc2)C(=O)CN1NCNN1CC(=O)N(c2ccc(Cl)cc2)CC1=O | > 100 µM | > 100 µM | > 100 µM | > 100 µM | > 100 µM | > 100 µM | > 100 µM | > 100 µM | > 100 µM | > 100 µM
17 | CN(C)c1ccc(C2ON=C(c3ccccc3)N2C23CC4CC(CC(C4)C2)C3)cc1 (stereo not given) | > 10 µM | > 10 µM | > 10 µM | > 10 µM | > 10 µM | > 10 µM | > 10 µM | > 10 µM | > 10 µM | > 10 µM

Row | Compound | TGI [1] | TGI [2] | TGI [3] | TGI [4] | TGI [5] | TGI [6] | TGI [7] | TGI [8] | TGI [9] | TGI [10]
18 | O=C(CN(c1ccc(S(=O)(=O)O)cc1)c1ccc(S(=O)(=O)O)cc1)Nn1cnc2ccc(S(=O)(=O)N(c3ccc(S(=O)(=O)O)cc3)c3ccc(S(=O)(=O)O)cc3)cc2c1=O | > 100 µM | > 100 µM | > 100 µM | > 100 µM | > 100 µM | > 100 µM | > 100 µM | > 100 µM | > 100 µM | > 100 µM
19 | Cc1cc(C)n(C(=O)CSc2nnc(SCC(=O)n3nc(C)cc3C)s2)n1 | > 100 µM | > 100 µM | > 100 µM | > 100 µM | > 100 µM | > 100 µM | > 100 µM | > 100 µM | > 100 µM | > 100 µM
20 | Oc1ccc(-c2cn3cc(C(F)(F)F)ccc3n2)cc1 | > 100 µM | > 100 µM | > 100 µM | 42.3 µM | > 100 µM | > 100 µM | > 100 µM | > 100 µM | > 100 µM | > 100 µM
21 | COc1ccc2nc3n(c2c1)C(c1c(Cl)cccc1Cl)SC3 (stereo not given) | > 100 µM | > 100 µM | > 100 µM | > 100 µM | > 100 µM | > 100 µM | > 100 µM | > 100 µM | > 100 µM | > 100 µM
22 | CC1OC(O[C@H]2CC[C@]3(C=O)[C@H]4CC[C@]5(C)[C@H](C6=CC(=O)OC6)CC[C@]5(O)[C@@H]4C=C[C@]3(O)C2)CC(O)C1O (stereo not given in full) | 0.694 µM | 0.682 µM | 0.3 µM | 2.92 µM | 0.349 µM | 0.41 µM | 0.611 µM | 0.503 µM | 0.464 µM | 0.608 µM
23 | COC(=O)C1C(C(=O)OC)C1(Br)CBr (stereo not given) | > 100 µM | 46.8 µM | 21 µM | > 100 µM | > 100 µM | 61.8 µM | > 100 µM | > 100 µM | 79.4 µM | 94.3 µM
24 | CCN(CC)COC(=S)S | > 100 µM | 25.9 µM | 69 µM | > 78.1 µM | > 100 µM | > 100 µM | > 100 µM | > 100 µM | > 100 µM | > 100 µM
25 | O=[As](O)(O)c1ccc2nc3cc([As](=O)(O)O)ccc3nc2c1 | > 100 µM | > 100 µM | > 100 µM | > 100 µM | > 100 µM | > 100 µM | > 100 µM | > 100 µM | > 100 µM | > 100 µM
26 | CCOC(=O)N1[C@@H]2CCC[C@@H]2C(=O)[C@@H]2CCC[C@@H]21 | > 100 µM | > 100 µM | > 100 µM | > 100 µM | > 100 µM | > 100 µM | > 100 µM | > 100 µM | > 100 µM | > 100 µM
27 | O=c1[nH]c(=O)n(C/C=C/CBr)nc1Br | 21.8 µM | 14.1 µM | 43.3 µM | 28.3 µM | 26.3 µM | 25.8 µM | 26.3 µM | 37.9 µM | 28.1 µM | 27.7 µM
28 | O=S(=O)(OI(O)CC(F)(F)F)C(F)(F)F | > 100 µM | > 100 µM | > 100 µM | > 100 µM | > 100 µM | > 100 µM | > 100 µM | > 100 µM | > 100 µM | > 100 µM
29 | c1ccc(C2=Nc3cccc4cccc(c34)N2)cc1 | > 100 µM | 52.9 µM | > 54.8 µM | > 100 µM | 50.8 µM | 62.5 µM | > 100 µM | > 100 µM | > 100 µM | > 85.7 µM
30 | CCN(CC)C(=S)SS(=O)(=O)c1ccccc1[N+](=O)[O-] | > 56.2 µM | > 42.6 µM | 26 µM | > 100 µM | > 59.1 µM | > 78.4 µM | > 100 µM | > 65.8 µM | 56.6 µM | > 80.6 µM
31 | N#Cc1c(N)c(C#N)c2c(c1-c1ccc(Cl)cc1)COc1ccccc1-2 | 32.7 µM | 26.3 µM | 25 µM | 54.9 µM | 40.7 µM | 38.1 µM | 37.7 µM | 33.5 µM | 31 µM | 65.2 µM
32 | CC(NC(NC(C)C12CC3CC(CC(C3)C1)C2)=C(C(Cl)=C(Cl)Cl)[N+](=O)[O-])C12CC3CC(CC(C3)C1)C2 (stereo not given) | 12.6 µM | > 100 µM | > 100 µM | > 75 µM | 40 µM | > 100 µM | > 100 µM | > 100 µM | 23.2 µM | > 91.6 µM
33 | CCN(CC)CCNc1ccc(C)c2sc3ccccc3c(=O)c12 | 5.65 µM | 6.58 µM | 4.65 µM | 14 µM | 4.31 µM | 11.5 µM | 8.05 µM | 24.2 µM | 12.2 µM | 19.4 µM
